Results reported in patent US20260103461A1, “ESTROGEN RECEPTOR MODULATORS AND USES THEREOF” (Olema Pharmaceuticals, Inc., priority 2022, published 2026).

target: T1, estrogen receptor (Homo sapiens, UniProt P03372); assay: AP (alkaline phosphatase) assay in ECC-1 cells, agonist mode and antagonist mode; assay type: cell-based; details: 3 days, absence of E2 (agonist mode) or 500 pM E2 (antagonist mode), AP activity normalized to 500 pM E2 alone
T1 construct: endogenous in cells; host or cells: ECC-1 cells
T1 sequence (P03372 1-595): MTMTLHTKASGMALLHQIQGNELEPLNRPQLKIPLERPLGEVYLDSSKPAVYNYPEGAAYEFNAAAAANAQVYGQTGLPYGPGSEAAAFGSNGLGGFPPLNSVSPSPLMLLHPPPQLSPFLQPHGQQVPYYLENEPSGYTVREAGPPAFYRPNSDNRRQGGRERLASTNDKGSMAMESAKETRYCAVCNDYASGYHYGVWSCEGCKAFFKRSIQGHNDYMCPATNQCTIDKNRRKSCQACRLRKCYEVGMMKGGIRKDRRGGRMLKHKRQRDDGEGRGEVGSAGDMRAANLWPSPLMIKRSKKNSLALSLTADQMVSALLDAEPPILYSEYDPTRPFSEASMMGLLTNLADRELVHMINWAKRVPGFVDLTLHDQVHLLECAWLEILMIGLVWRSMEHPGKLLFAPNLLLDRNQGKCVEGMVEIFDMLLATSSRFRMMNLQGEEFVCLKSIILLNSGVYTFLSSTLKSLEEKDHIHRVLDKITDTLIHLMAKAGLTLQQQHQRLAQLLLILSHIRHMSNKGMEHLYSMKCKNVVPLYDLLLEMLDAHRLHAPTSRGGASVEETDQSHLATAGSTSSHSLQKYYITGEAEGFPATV
Protocol: ECC-1 cells were trypsinized and resuspended in hormone-depleted media and plated at a density of 15 k cells per well into a 96-well plate for at least 4 hours. Cells were treated with test compounds in the absence of E2 (for agonist mode) or in the presence of 500 pM E2 (for antagonist mode) for 3 days and plates were subsequently frozen at −80° C. Thawed plates were incubated with a chromogenic substrate of AP, p-nitrophenyl phosphate (Thermo Fisher Scientific), for 40 minutes at 42° C., and absorbances were read at 405 nm. AP activity was normalized to the activity of 500 pM E2 alone.
The compound numbers correspond to the compound numbers of Table 1 and 2. Compounds having an activity designated as “+” provided estrogen receptor agonism having (i) at least 80% increase in the E2-normalized signal in the AP assay (agonist mode) and (ii) no more than 80% reduction in the E2-normalized signal in the AP assay (antagonist mode). Compounds having an activity designated as “++” provided estrogen receptor antagonism having (i) between 10% and 80% increase in the E2-normalized signal in the AP assay (agonist mode) and (ii) between 10% and 80% reduction in the E2-normalized signal in the AP assay (antagonist mode).

SMILES	Activity (estrogen receptor modulation, agonism and antagonism)
CCN1CC[C@@H](Oc2ccc([C@@H]3c4[nH]c5ccccc5c4C[C@@H](C)N3CC(C)(C)F)s2)C1 [Example I-14, (1S,3R)-1-[5-[(3R)-1-ethylpyrrolidin-3-yl]oxy-2-thienyl]-2-(2-fluoro-2-methyl-propyl)-3-methyl-1,3,4,9-tetrahydropyrido[3,4-b]indole]	+ (estrogen receptor agonism having (i) at least 80% increase in the E2-normalized signal in the AP assay (agonist mode) and (ii) no more than 80% reduction in the E2-normalized signal in the AP assay (antagonist mode))
C[C@@H]1Cc2c([nH]c3ccccc23)[C@@H](c2ccc(O[C@@H]3CCN(CCC(F)F)C3)s2)N1CC(C)(C)F [Example I-15, (1S,3R)-1-[5-[(3R)-1-(3,3-difluoropropyl)pyrrolidin-3-yl]oxy-2-thienyl]-2-(2-fluoro-2-methyl-propyl)-3-methyl-1,3,4,9-tetrahydropyrido[3,4-b]indole]	+ (estrogen receptor agonism having (i) at least 80% increase in the E2-normalized signal in the AP assay (agonist mode) and (ii) no more than 80% reduction in the E2-normalized signal in the AP assay (antagonist mode))
C[C@@H]1Cc2c([nH]c3ccccc23)[C@@H](c2ccc(O[C@@H]3CCN(CCF)C3)s2)N1CC(C)(C)F [Example I-17, (1S,3R)-1-[5-[(3R)-1-(2-fluoroethyl)pyrrolidin-3-yl]oxy-2-thienyl]-2-(2-fluoro-2-methyl-propyl)-3-methyl-1,3,4,9-tetrahydropyrido[3,4-b]indole]	+ (estrogen receptor agonism having (i) at least 80% increase in the E2-normalized signal in the AP assay (agonist mode) and (ii) no more than 80% reduction in the E2-normalized signal in the AP assay (antagonist mode))
C[C@@H]1Cc2c([nH]c3ccccc23)[C@@H](c2ncc(OC3CN(CCCF)C3)s2)N1CC(F)F [Example I-18, 2-[(1S,3R)-2-(2,2-difluoroethyl)-3-methyl-1,3,4,9-tetrahydropyrido[3,4-b]indol-1-yl]-5-[1-(3-fluoropropyl)azetidin-3-yl]oxy-thiazole]	++ (estrogen receptor antagonism having (i) between 10% and 80% increase in the E2-normalized signal in the AP assay (agonist mode) and (ii) between 10% and 80% reduction in the E2-normalized signal in the AP assay (antagonist mode))
C[C@@H]1Cc2c([nH]c3ccccc23)[C@@H](c2ccc(O[C@@H]3CCN(CCCF)C3)s2)N1CC(F)F [Example I-19, (1S,3R)-2-(2,2-difluoroethyl)-1-[5-[(3R)-1-(3-fluoropropyl)pyrrolidin-3-yl]oxy-2-thienyl]-3-methyl-1,3,4,9-tetrahydropyrido[3,4-b]indole]	+++ (estrogen receptor antagonism (i) with pIC50 greater than 7.5 and at least a 10% reduction in the E2-normalized signal in the AP assay (antagonist mode); and no more than 10% increase in E2-normalized signal in the AP assay (agonist mode))
C[C@@H]1Cc2c([nH]c3ccccc23)[C@@H](c2ccc(O[C@@H]3CCN(CCCF)C3)s2)N1CC(F)(F)F [Example I-20, (1S,3R)-1-[5-[(3R)-1-(3-fluoropropyl)pyrrolidin-3-yl]oxy-2-thienyl]-3-methyl-2-(2,2,2-trifluoroethyl)-1,3,4,9-tetrahydropyrido[3,4-b]indole]	++ (estrogen receptor antagonism having (i) between 10% and 80% increase in the E2-normalized signal in the AP assay (agonist mode) and (ii) between 10% and 80% reduction in the E2-normalized signal in the AP assay (antagonist mode))
C[C@@H]1Cc2c([nH]c3ccccc23)[C@@H](c2ccc(OC3CN(CCCF)C3)s2)N1CC(F)(F)F [Example I-21, (1S,3R)-1-[5-[1-(3-fluoropropyl)azetidin-3-yl]oxy-2-thienyl]-3-methyl-2-(2,2,2-trifluoroethyl)-1,3,4,9-tetrahydropyrido[3,4-b]indole]	++ (estrogen receptor antagonism having (i) between 10% and 80% increase in the E2-normalized signal in the AP assay (agonist mode) and (ii) between 10% and 80% reduction in the E2-normalized signal in the AP assay (antagonist mode))
C[C@@H]1Cc2c([nH]c3ccccc23)[C@@H](c2ncc(OC3CN(CCCF)C3)s2)N1CC(F)(F)CO [Example I-22, 2,2-difluoro-3-[(1S,3R)-1-[5-[1-(3-fluoropropyl)azetidin-3-yl]oxythiazol-2-yl]-3-methyl-1,3,4,9-tetrahydropyrido[3,4-b]indol-2-yl]propan-1-ol]	++ (estrogen receptor antagonism having (i) between 10% and 80% increase in the E2-normalized signal in the AP assay (agonist mode) and (ii) between 10% and 80% reduction in the E2-normalized signal in the AP assay (antagonist mode))
C[C@@H]1Cc2c([nH]c3ccccc23)[C@@H](c2cnc(O[C@@H]3CCN(CCCF)C3)s2)N1CC(C)(C)F [Example I-23, 5-[(1S,3R)-2-(2-fluoro-2-methyl-propyl)-3-methyl-1,3,4,9-tetrahydropyrido[3,4-b]indol-1-yl]-2-[(3R)-1-(3-fluoropropyl)pyrrolidin-3-yl]oxy-thiazole]	+++ (estrogen receptor antagonism (i) with pIC50 greater than 7.5 and at least a 10% reduction in the E2-normalized signal in the AP assay (antagonist mode); and no more than 10% increase in E2-normalized signal in the AP assay (agonist mode))
C[C@@H]1Cc2c([nH]c3ccccc23)[C@@H](c2ncc(O[C@@H]3CCN(CCCF)C3)s2)N1CC(F)(F)CO [Example I-24, 2,2-difluoro-3-[(1S,3R)-1-[5-[(3R)-1-(3-fluoropropyl)pyrrolidin-3-yl]oxythiazol-2-yl]-3-methyl-1,3,4,9-tetrahydropyrido[3,4-b]indol-2-yl]propan-1-ol]	++ (estrogen receptor antagonism having (i) between 10% and 80% increase in the E2-normalized signal in the AP assay (agonist mode) and (ii) between 10% and 80% reduction in the E2-normalized signal in the AP assay (antagonist mode))
C[C@@H]1Cc2c([nH]c3ccccc23)[C@@H](c2sc(OC3CN(CCCF)C3)cc2F)N1CC(F)(F)CO [Example I-26, 2,2-difluoro-3-[(1S,3R)-1-[3-fluoro-5-[1-(3-fluoropropyl)azetidin-3-yl]oxy-2-thienyl]-3-methyl-1,3,4,9-tetrahydropyrido[3,4-b]indol-2-yl]propan-1-ol]	+++ (estrogen receptor antagonism (i) with pIC50 greater than 7.5 and at least a 10% reduction in the E2-normalized signal in the AP assay (antagonist mode); and no more than 10% increase in E2-normalized signal in the AP assay (agonist mode))
C[C@@H]1Cc2c([nH]c3ccccc23)[C@@H](c2sc(O[C@@H]3CCN(CCCF)C3)cc2F)N1CC(F)(F)CO [Example I-27, 2,2-difluoro-3-[(1S,3R)-1-[3-fluoro-5-[(3R)-1-(3-fluoropropyl)pyrrolidin-3-yl]oxy-2-thienyl]-3-methyl-1,3,4,9-tetrahydropyrido[3,4-b]indol-2-yl]propan-1-ol]	+++ (estrogen receptor antagonism (i) with pIC50 greater than 7.5 and at least a 10% reduction in the E2-normalized signal in the AP assay (antagonist mode); and no more than 10% increase in E2-normalized signal in the AP assay (agonist mode))
